Test results from patent publication US11149066B2, “Thrombospondin 1-binding peptide” (DAIICHI SANKYO COMPANY, LIMITED, priority 2016, dated 2021).
Positions of bridges follow the written chain, without caps; N, C: chain ends. Non-standard residues stand in square brackets, D forms with d. Residues, ends and D or L forms follow the SMILES beside them. Trp(6-Cl) = N[C@@H](Cc1c[nH]c2cc(Cl)ccc12)C(=O)O; Phe(3,4-Cl2) = N[C@@H](Cc1ccc(Cl)c(Cl)c1)C(=O)O; 2Nal = N[C@@H](Cc1ccc2ccccc2c1)C(=O)O; His(π-Me) = Cn1cncc1C[C@H](N)C(=O)O; hPhe = N[C@@H](CCc1ccccc1)C(=O)O; Nle = CCCC[C@H](N)C(=O)O

Each compound was assayed against human TSP1 (Homo sapiens, UniProt P07996) (assay: Cell adhesion inhibition assay (HUVEC adhesion to TSP1-coated plate)). Settings: HUVEC adhesion to TSP1-coated plate; read-out: cell adhesion inhibition (Table 4).
human TSP1, sequence (P07996 19-1170 limits assumed): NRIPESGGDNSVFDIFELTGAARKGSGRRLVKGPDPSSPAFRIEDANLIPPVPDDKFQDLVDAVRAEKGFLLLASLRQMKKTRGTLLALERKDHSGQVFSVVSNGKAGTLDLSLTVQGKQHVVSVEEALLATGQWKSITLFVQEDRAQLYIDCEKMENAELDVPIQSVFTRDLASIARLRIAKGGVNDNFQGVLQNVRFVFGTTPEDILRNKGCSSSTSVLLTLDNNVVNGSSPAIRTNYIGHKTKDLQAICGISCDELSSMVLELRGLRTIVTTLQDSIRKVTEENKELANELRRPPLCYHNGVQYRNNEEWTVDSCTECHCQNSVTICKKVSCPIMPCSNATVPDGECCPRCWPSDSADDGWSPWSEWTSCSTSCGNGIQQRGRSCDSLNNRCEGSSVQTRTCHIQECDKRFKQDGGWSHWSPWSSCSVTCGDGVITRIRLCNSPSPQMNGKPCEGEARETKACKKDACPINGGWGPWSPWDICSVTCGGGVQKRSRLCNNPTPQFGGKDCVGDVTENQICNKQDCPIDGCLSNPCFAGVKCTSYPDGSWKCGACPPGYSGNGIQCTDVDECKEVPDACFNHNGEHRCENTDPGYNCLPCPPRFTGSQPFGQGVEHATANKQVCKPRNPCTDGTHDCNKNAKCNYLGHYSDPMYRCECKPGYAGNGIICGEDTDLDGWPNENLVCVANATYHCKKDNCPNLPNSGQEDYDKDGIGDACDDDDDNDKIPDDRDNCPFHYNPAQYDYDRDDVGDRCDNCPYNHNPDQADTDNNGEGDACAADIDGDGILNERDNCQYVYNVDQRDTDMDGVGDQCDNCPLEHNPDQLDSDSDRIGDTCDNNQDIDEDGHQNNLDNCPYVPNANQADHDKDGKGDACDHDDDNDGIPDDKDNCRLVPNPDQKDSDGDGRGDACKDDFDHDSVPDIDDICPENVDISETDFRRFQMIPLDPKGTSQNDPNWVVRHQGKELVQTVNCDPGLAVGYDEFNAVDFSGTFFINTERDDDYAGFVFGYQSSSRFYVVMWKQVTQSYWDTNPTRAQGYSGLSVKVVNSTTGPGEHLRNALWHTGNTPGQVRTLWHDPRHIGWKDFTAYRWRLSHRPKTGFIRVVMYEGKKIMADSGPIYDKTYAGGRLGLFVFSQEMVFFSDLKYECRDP
Format: cell-based
Experimental: As referred to herein, the TSP1 inhibitory activity refers to the activity to inhibit one or more effects of TSP1, including angiostatic effect. The TSP1 inhibitory activity is measured by a cell adhesion inhibition assay using human TSP1 and vascular endothelial cells as described hereinbelow in the Examples section. In this assay, when the 50% inhibitory concentration (IC5O) of a test substance is 200 nM or less, the test substance is determined to have TSP1 inhibitory activity.
(Test Example 1) Cell Adhesion Inhibition Assay
I. Materials and Reagents
96 well Non-treated White with clear bottom (Coster, 3632)
BrightMax adhesive sealing films (EXCEL Scientific, WT50)
Proteosave®SS 15 mL (Sumitomo Bakelite, MS-52150)
Thrombospondin human platelet (Calbiochem, 605225)
EGM-2 MV (Lonza, CC-3202): for HUVEC passaging
Collagen coated dish (IWAKI, 4020-010): for HUVEC passaging
Lipidure®-BL802 (NOF Corporation), 5% solution
Albumin solution (35%) fraction V from Bovine (Sigma, A7979)
CellTiter-Glo (Promega, G7572)
Thrombospondin 1 vial (25 μg) was dissolved in TBS (+2 mM CaCl2; the same shall apply hereunder) to make a 200 μg/mL solution, which was diluted with TBS to a concentration of 10 μg/mL in Proteosave® 15 mL tube. The 10 μg/mL solution was dispensed into a 96 well plate at a volume of 50 μL/well (no reservoir was used since the protein easily adsorbs on it), and the plate was left to stand at 4° C. overnight.
Lipidure® was diluted 10-fold with TBS to make a 0.5% solution. After a buffer was discarded from the plate that had been coated at the step of <Plate coat> as described above, the 0.5% solution was dispensed into all wells to be used at a volume of 100 μL/well, and the plate was left to stand at room temperature for 1 hour.
A 0.2 μM solution of each sample was prepared using a dilution buffer (DMEM+0.5% BSA). 2 μL of the 0.2 μM solution was diluted with 500 μL, of dilution buffer to prepare a diluted sample. As a vehicle control, DMSO was diluted in the same way as the samples.
A blocking solution was discarded from the plate that had been treated at the step of <Plate blocking> as described above, and the plate was washed three times with 150 μL/well of TBS. The washing solution used for the third washing was completely sucked out by an aspirator, and the diluted sample was dispensed into the plate at a volume of 50 μL/well. Then, the plate was left to stand at room temperature for 15 to 30 minutes.
To maintain HUVECs, EGM2-MV and a collagen coated dish were used (the cells were ceased to be used after 10th or 1 lth passage since the cell proliferation rate declined at this stage). The cells were dispersed with 0.05% Trypsin/EDTA, harvested in DMEM/0.5% BSA, and centrifuged at 1000 rpm for 3 minutes. After removal of supernatant, the cells were washed once with a DMEM buffer. The cells were resuspended in a DMEM buffer, counted for cell number, and diluted to 10000 cells/50 μL. The cell suspension was dispensed at a volume of 50 μL/well into the plate into which the sample had been dispensed, mixed gently, and incubated at 37° C. for 2.5 hours.
After cell adhesion was confirmed, the culture medium was completely removed by an aspirator, and 100 μL/well of DMEM/0.5% BSA was gently dispensed. Then, DMEM/0.5% BSA was completely removed by an aspirator, and 50 μL/well of DMEM/0.5% BSA was dispensed. After a white seal was applied to the bottom of the plate, 50 μL/well of CellTiter-Glo® was dispensed, and the solution was stirred for 2 minutes and left to stand at room temperature for 8 minutes. […] was detected using EnVision Xcite Multilabel Reader (produced by Perkin Elmer).
On the basis of the measured fluorescence values, the IC50 values (nM) of the different macrocyclic polypeptides for inhibition of cell adhesion were calculated.

| IC50 | Structure (SMILES) |
| --- | --- |
| 19.6 nM | CCCC[C@@H]1NC(=O)[C@H](Cc2c[nH]c3ccccc23)NC(=O)[C@H](CC(=O)O)NC(=O)[C@H](Cc2c[nH]cn2)NC(=O)CNC(=O)[C@H](CO)NC(=O)[C@H](CCCNC(=N)N)NC(=O)[C@H](Cc2ccc3ccccc3c2)NC(=O)CSC[C@@H](C(N)=O)NC(=O)[C@H](C(C)C)NC(=O)[C@H](Cc2c[nH]c3ccccc23)NC(=O)[C@H](C(C)C)NC1=O [Compound 101] ({CH2CO}-[2Nal]RSGHDW[Nle]VWVC-NH2; thioether N-12) |
| 19.5 nM | CCCC[C@@H]1NC(=O)[C@H](Cc2c[nH]c3ccccc23)NC(=O)[C@H](CC(N)=O)NC(=O)[C@H](Cc2c[nH]cn2)NC(=O)CNC(=O)[C@H](CO)NC(=O)[C@H](CCCNC(=N)N)NC(=O)[C@H](Cc2ccc3ccccc3c2)NC(=O)CSC[C@@H](C(N)=O)NC(=O)[C@H](C(C)C)NC(=O)[C@H](Cc2c[nH]c3ccccc23)NC(=O)[C@H](C(C)C)NC1=O [Compound 100] ({CH2CO}-[2Nal]RSGHNW[Nle]VWVC-NH2; thioether N-12) |
| 17.2 nM | CCCC[C@@H]1NC(=O)[C@H](Cc2c[nH]c3ccccc23)NC(=O)[C@H](CC(=O)O)NC(=O)[C@H](CCCNC(=N)N)NC(=O)CNC(=O)[C@H](CO)NC(=O)[C@H]([C@@H](C)CC)NC(=O)[C@H](Cc2ccc3ccccc3c2)NC(=O)[C@H](CCCCN)NC(=O)CSC[C@@H](C(N)=O)NC(=O)[C@H](C(C)C)NC(=O)[C@H](Cc2c[nH]c3ccccc23)NC(=O)[C@H](CCCCN)NC1=O [Compound 90] ({CH2CO}-K[2Nal]ISGRDW[Nle]KWVC-NH2; thioether N-13) |
| 15.5 nM | CCCC[C@@H]1NC(=O)[C@H](Cc2c[nH]c3ccccc23)NC(=O)[C@H](CC(=O)O)NC(=O)[C@H](CCCCN)NC(=O)CNC(=O)[C@H](CO)NC(=O)[C@H]([C@@H](C)CC)NC(=O)[C@H](Cc2ccc3ccccc3c2)NC(=O)[C@H](CO)NC(=O)CSC[C@@H](C(N)=O)NC(=O)[C@H](C(C)C)NC(=O)[C@H](Cc2c[nH]c3ccccc23)NC(=O)[C@H](CCCNC(=N)N)NC1=O [Compound 92] ({CH2CO}-S[2Nal]ISGKDW[Nle]RWVC-NH2; thioether N-13) |

Same assay, conditions: HUVEC adhesion to human platelet thrombospondin-coated plate, 2.5 hours, CellTiter-Glo; read-out: Cell adhesion IC50

| Structure (SMILES) | IC50 |
| --- | --- |
| CC[C@H](C)[C@@H]1NC(=O)[C@H](Cc2ccccc2)NC(=O)CSC[C@@H](C(N)=O)NC(=O)[C@H](C(C)C)NC(=O)[C@H](Cc2c[nH]c3ccccc23)NC(=O)[C@H](Cc2cncn2C)NC(=O)[C@H](C(C)C)NC(=O)[C@H](Cc2c[nH]c3ccccc23)NC(=O)[C@H](CC(N)=O)NC(=O)[C@H](CCCNC(=N)N)NC(=O)CNC(=O)[C@H](CO)NC1=O [Compound 46] ({CH2CO}-FISGRNWV[His(π-Me)]WVC-NH2; thioether N-12) | 30.3 nM |
| CC[C@H](C)[C@@H]1NC(=O)[C@H](Cc2ccccc2)NC(=O)CSC[C@@H](C(N)=O)NC(=O)[C@H](C(C)C)NC(=O)[C@H](Cc2c[nH]c3ccccc23)NC(=O)[C@H](C(C)C)NC(=O)[C@H](C(C)C)NC(=O)[C@H](Cc2c[nH]c3ccccc23)NC(=O)[C@H](CC(N)=O)NC(=O)[C@H](CCCNC(=N)N)NC(=O)CNC(=O)[C@H](CO)NC1=O [Compound 1] ({CH2CO}-FISGRNWVVWVC-NH2; thioether N-12) | 34 nM |

The next lines start with the values.

| IC50 | Structure (SMILES) |
| --- | --- |
| 28.1 nM | CC(C)[C@@H]1NC(=O)[C@H](Cc2c[nH]c3ccccc23)NC(=O)[C@H](CCCCN)NC(=O)[C@H](C(C)C)NC(=O)[C@H](Cc2c[nH]c3ccccc23)NC(=O)[C@H](CC(N)=O)NC(=O)[C@H](CCCNC(=N)N)NC(=O)CNC(=O)[C@H](CO)NC(=O)[C@H](Cc2ccc3ccccc3c2)NC(=O)[C@H](Cc2ccc(Cl)c(Cl)c2)NC(=O)CSC[C@@H](C(N)=O)NC1=O [Compound 34] ({CH2CO}-[Phe(3,4-Cl2)][2Nal]SGRNWVKWVC-NH2; thioether N-12) |
| 26 nM | CC[C@H](C)[C@@H]1NC(=O)[C@H](Cc2ccc3ccccc3c2)NC(=O)CSC[C@@H](C(N)=O)NC(=O)[C@H](C(C)C)NC(=O)[C@H](Cc2c[nH]c3ccccc23)NC(=O)[C@H](CCCCN)NC(=O)[C@H](C(C)C)NC(=O)[C@H](Cc2c[nH]c3cc(Cl)ccc23)NC(=O)[C@H](CC(N)=O)NC(=O)[C@H](CCCNC(=N)N)NC(=O)CNC(=O)[C@H](CO)NC1=O [Compound 35] ({CH2CO}-[2Nal]ISGRN[Trp(6-Cl)]VKWVC-NH2; thioether N-12) |
| 20.7 nM | CCCC[C@@H]1NC(=O)[C@H](Cc2c[nH]c3ccccc23)NC(=O)[C@H](CC(N)=O)NC(=O)[C@H](Cc2c[nH]cn2)NC(=O)CNC(=O)[C@H](CO)NC(=O)[C@H]([C@@H](C)CC)NC(=O)[C@H](Cc2ccc3ccccc3c2)NC(=O)CSC[C@@H](C(N)=O)NC(=O)[C@H](C(C)C)NC(=O)[C@H](Cc2c[nH]c3ccccc23)NC(=O)[C@H](CCCCN)NC1=O [Compound 59] ({CH2CO}-[2Nal]ISGHNW[Nle]KWVC-NH2; thioether N-12) |
| 20.7 nM | CC(C)[C@@H]1NC(=O)[C@H](Cc2c[nH]c3ccccc23)NC(=O)[C@H](CCCCN)NC(=O)[C@H](C(C)C)NC(=O)[C@H](Cc2c[nH]c3ccccc23)NC(=O)[C@H](CC(N)=O)NC(=O)[C@H](CCCNC(=N)N)NC(=O)CNC(=O)[C@H](CO)NC(=O)[C@H](Cc2c[nH]c3ccccc23)NC(=O)[C@H](Cc2ccc3ccccc3c2)NC(=O)CSC[C@@H](C(N)=O)NC1=O [Compound 33] ({CH2CO}-[2Nal]WSGRNWVKWVC-NH2; thioether N-12) |
| 19.6 nM | CC[C@H](C)[C@@H]1NC(=O)[C@H](Cc2ccc3ccccc3c2)NC(=O)CSC[C@@H](C(N)=O)NC(=O)[C@H](CCc2ccccc2)NC(=O)[C@H](Cc2c[nH]c3ccccc23)NC(=O)[C@H](CCCCN)NC(=O)[C@H](C(C)C)NC(=O)[C@H](Cc2c[nH]c3ccccc23)NC(=O)[C@H](CC(N)=O)NC(=O)[C@H](CCCNC(=N)N)NC(=O)CNC(=O)[C@H](CO)NC1=O [Compound 37] ({CH2CO}-[2Nal]ISGRNWVKW[hPhe]C-NH2; thioether N-12) |
| 15.6 nM | CC[C@H](C)[C@@H]1NC(=O)[C@H](Cc2c[nH]c3ccccc23)NC(=O)CSC[C@@H](C(N)=O)NC(=O)[C@H](C(C)C)NC(=O)[C@H](Cc2c[nH]c3ccccc23)NC(=O)[C@H](CCCCN)NC(=O)[C@H](C(C)C)NC(=O)[C@H](Cc2c[nH]c3ccccc23)NC(=O)[C@H]([C@@H](C)O)NC(=O)[C@H](CCCNC(=N)N)NC(=O)CNC(=O)[C@H](CO)NC1=O [Compound 23] ({CH2CO}-WISGRTWVKWVC-NH2; thioether N-12) |
| 14 nM | CC[C@H](C)[C@@H]1NC(=O)[C@H](Cc2ccccc2)NC(=O)CSC[C@@H](C(N)=O)NC(=O)[C@H](C(C)C)NC(=O)[C@H](Cc2c[nH]c3ccccc23)NC(=O)[C@H](CCCCN)NC(=O)[C@H](CCSC)NC(=O)[C@H](Cc2c[nH]c3ccccc23)NC(=O)[C@H](CC(N)=O)NC(=O)[C@H](CCCCN)NC(=O)CNC(=O)[C@H](CO)NC1=O [Compound 19] ({CH2CO}-FISGKNWMKWVC-NH2; thioether N-12) |
| 13 nM | CC[C@H](C)[C@@H]1NC(=O)[C@H](Cc2c[nH]c3ccccc23)NC(=O)CSC[C@@H](C(N)=O)NC(=O)[C@H](C(C)C)NC(=O)[C@H](Cc2c[nH]c3ccccc23)NC(=O)[C@H](CCCCN)NC(=O)[C@H](C(C)C)NC(=O)[C@H](Cc2c[nH]c3ccccc23)NC(=O)[C@H]([C@@H](C)O)NC(=O)[C@H](CCCCN)NC(=O)CNC(=O)[C@H](CO)NC1=O [Compound 20] ({CH2CO}-WISGKTWVKWVC-NH2; thioether N-12) |
| 13 nM | CC[C@H](C)[C@@H]1NC(=O)[C@H](Cc2ccccc2)NC(=O)CSC[C@@H](C(N)=O)NC(=O)[C@H](C(C)C)NC(=O)[C@H](Cc2c[nH]c3ccccc23)NC(=O)[C@H](CCCCN)NC(=O)[C@H](C(C)C)NC(=O)[C@H](Cc2c[nH]c3ccccc23)NC(=O)[C@H]([C@@H](C)O)NC(=O)[C@H](CCCCN)NC(=O)CNC(=O)[C@H](CO)NC1=O [Compound 18] ({CH2CO}-FISGKTWVKWVC-NH2; thioether N-12) |
